From BindingDB's records for patent US20250051319 (Augustine Therapeutics, 2025) come the findings set out here.

A word on the pIC50: it is the negative decadic logarithm of the IC50, by convention in mol/L. Read a high pIC50 as a low IC50.

Experiment [1] addresses T1, Histone deacetylase 6 [482-800] (Homo sapiens, UniProt Q9UBN7).
T1 construct: 482-800
T1 sequence (Q9UBN7 whole entry): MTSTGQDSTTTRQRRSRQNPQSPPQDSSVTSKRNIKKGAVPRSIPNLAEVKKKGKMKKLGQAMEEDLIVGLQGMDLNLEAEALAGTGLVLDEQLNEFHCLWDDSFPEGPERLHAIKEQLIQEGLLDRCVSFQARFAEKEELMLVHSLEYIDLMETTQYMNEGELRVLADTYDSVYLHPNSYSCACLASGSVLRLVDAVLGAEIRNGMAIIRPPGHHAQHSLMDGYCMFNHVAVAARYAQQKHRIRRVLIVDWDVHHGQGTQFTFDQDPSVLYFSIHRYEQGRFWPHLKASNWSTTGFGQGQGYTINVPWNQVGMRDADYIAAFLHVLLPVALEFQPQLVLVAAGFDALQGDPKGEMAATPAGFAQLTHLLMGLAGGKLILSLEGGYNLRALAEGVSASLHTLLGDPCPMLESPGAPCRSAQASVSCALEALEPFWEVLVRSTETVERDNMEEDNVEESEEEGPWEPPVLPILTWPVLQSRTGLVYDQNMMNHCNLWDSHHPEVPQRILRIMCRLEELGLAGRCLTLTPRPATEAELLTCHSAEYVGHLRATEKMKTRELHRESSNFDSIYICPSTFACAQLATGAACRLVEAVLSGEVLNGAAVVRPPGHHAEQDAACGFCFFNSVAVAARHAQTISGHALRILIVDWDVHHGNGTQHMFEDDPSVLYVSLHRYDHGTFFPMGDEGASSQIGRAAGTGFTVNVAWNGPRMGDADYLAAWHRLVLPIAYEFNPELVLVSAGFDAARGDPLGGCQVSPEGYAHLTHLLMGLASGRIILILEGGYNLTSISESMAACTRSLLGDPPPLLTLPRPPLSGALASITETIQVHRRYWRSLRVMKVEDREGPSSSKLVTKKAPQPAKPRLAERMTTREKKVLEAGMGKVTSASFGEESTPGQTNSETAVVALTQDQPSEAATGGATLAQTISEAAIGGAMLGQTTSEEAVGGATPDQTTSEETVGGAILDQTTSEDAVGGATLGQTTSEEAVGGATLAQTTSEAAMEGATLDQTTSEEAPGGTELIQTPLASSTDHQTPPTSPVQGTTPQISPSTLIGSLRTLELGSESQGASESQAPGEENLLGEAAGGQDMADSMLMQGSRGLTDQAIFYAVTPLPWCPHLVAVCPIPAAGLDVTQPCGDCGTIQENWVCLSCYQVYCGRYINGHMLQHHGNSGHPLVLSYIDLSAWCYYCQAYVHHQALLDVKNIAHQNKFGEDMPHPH
Put plainly: Cellular Target Engagement Assay. The procedure:
NanoBRET target engagement was performed against the catalytic domain 2 (CD2) of HDAC6, with minor modifications of kit manufacturer protocol (Promega). Expression of exogenous NanoLuc-HDAC6(CD2) fusion and in HEK293T was achieved following transient transfection with FuGENE HD Transfection Reagent (Promega). […] Compounds (dissolved in 100% DMSO) or DMSO (vehicle) were added either manually by diluting them in culture medium at 8× final assay concentration and then adding 5 μL to assay plate or in an automated way by adding 160 nL compound to 5 μL OptiMEM without phenol red (Gibco) using the Echo650 (Labcyte). Tracer solution was added to the cells before seeding 35 μL cell/tracer mixture in the assay plate. […] Assay plates were incubated at 37° C. in a humidified atmosphere containing 5% C02 for 2 hours. […] BRET ratios were calculated from acceptor/donor signal ratio (mBRET=acceptor/donor*1000) and normalized for each plate. Percentage inhibition was calculated by setting the mBRET obtained with cells without tracer to 100%, while the mBRET obtained with uninhibited cells with tracer was set to 0%. IC50-values were calculated from the percentage inhibition with the log(inhibitor) vs. response—Variable slope (four parameters) nonlinear regression in GraphPad Prism software.

In the next experiment the target is T2, Histone deacetylase 6 (Homo sapiens, UniProt Q9UBN7).
T2 sequence (Q9UBN7 whole entry): T1 sequence (Q9UBN7 whole entry)
Put plainly: HDAC6 Enzymatic Activity Assay. The procedure:
Dose response testing of HDAC6 and HDAC 1 were run at Reaction Biology Corporation (RBC). […] 2× enzyme was delivered in the wells of the reaction plate except for the “no enzyme” control wells. In the latter, buffer was added. Compounds in 100% DMSO were delved into the enzyme mixture by acoustic technology (Echo550). Plates are spun down and compounds were incubation with the enzyme for 10 min at room temperature. […] Developer containing Trichostatin A was added to stop the reaction and generate fluorescent color. A kinetic measurement was carried out for 20 min with 5 min interval on the Envision plate reader (Perkin Elmer, Ex/Em=360/460). End point reading i.e., plateau of the development reaction was used for analysis. Data was reported by RBC as percentage enzyme activity. Percentage inhibition was calculated by subtracting percentage enzyme activity from 100. IC50 values were calculated using GraphPad Prism 9 based on the log(inhibitor) vs. response—Variable slope (four parameters) equation.

pIC50: −log10 of the molar value. Where only a bound is given, the exact number is not on record here.

On to `O=C(CSc1nc(C(F)(F)F)nc2ncccc12)c1ccc(CN2CC[C@@H](O)C2=O)s1` [US20250051319, Compound 155], for which, in experiment [1], the negative-log IC50 (pIC50) is > 7.00.

Take `COCC(=O)NCc1ccc(C(=O)CSc2nc(C)nc3ncc(OC)cc23)s1` [US20250051319, Compound 163]: the pIC50 against Histone deacetylase 6 was > 7.00.
